pIC50: −log10 of the molar value. Where two headings read alike, the source gives them in different places. Each block holds one molecule with its values, some of them ahead of it.
What was measured:
[1] = target: hNET (Homo sapiens (Human), UniProt P23975); experiment: NET radioligand binding assay ([3H]nisoxetine, HEK-293 membranes); conditions: for pIC50: (+)-enantiomers; for inhibition at 0.1 µM: 100 nM, NET IC50 with footnote *
Method: (§1) Recombinant HEK-293 cells expressing either the hSERT, hDAT, or hNET proteins were harvested from T-175 flasks as follows. The medium was removed from the flasks and the cells rinsed with HBSS without Ca and without Mg. The cells were then incubated for 5-10 minutes in 10 mM Tris-Cl, pH 7.5, 5 mM EDTA before the cells were lifted with a combination of pipetting and scraping, as needed. The cell suspension was collected into centrifuge bottles and homogenized for 30 seconds with a Polytron homogenizer. The suspension was centrifuged for 30 minutes at 32,000×g, 4° C. The supernatant was decanted and the pellet resuspended and homogenized in 50 mM Tris-Cl, pH 7.5, 1 mM EDTA for 10 seconds. The suspension was then centrifuged again for 30 minutes at 32,000×g, 4° C. The supernatant was decanted and the pellet resuspended in 50 mM Tris-Cl, pH 7.5, 1 mM EDTA and briefly homogenized. A Bradford assay (Bio-rad) was performed and the membrane preparation diluted to 2 mg/ml with 50 mM Tris-Cl, pH 7.5, 1 mM EDTA. Aliquots were prepared, and then frozen and stored at −80° C.
(§2) Compounds were dissolved in 100% DMSO at a concentration 100 times the desired highest assay concentration, serially diluted 1:3 in 100% DMSO, and 1.0 μl/well of each solution was dispensed to a Nunc polypropylene, round bottom, 384-well plate. 100% inhibition is defined with 1.0 μl/well of 10 mM desipramine dissolved in DMSO. 50 μl/well of a 2× membrane preparation (0.4 mg/ml in 50 mM Tris-Cl, pH 7.5, 120 mM NaCl, 5 mM KCl) and 50 μl/well of a 2× radioligand solution (4 nM [^3H]nisoxetine in 50 mM Tris-Cl, pH 7.5, 120 mM NaCl, 5 mM KCl) were added to the well and the reaction incubated for 1 hour at room temperature. The contents of the assay plate were then transferred to a Millipore MultiscreenHTS GF/B filter plate which was pretreated with 0.5% PEI for at least one hour. The plate was vacuum filtered and washed with 7 washes of 100 μl/well 50 mM Tris-Cl, pH 7.5, 120 mM NaCl, 5 mM KCl chilled to 4° C. The filtration and washing were completed in less than 90 seconds. The plates were air-dried overnight, 12 μl/well of MicroScint scintillation fluid added, and the plates counted in a Trilux.
(§3) The raw data was normalized to percent inhibition using control wells defining 0% (DMSO only) and 100% (selective inhibitor) inhibition which were run on each plate. Each plate was run in triplicate, and the concentration response curve thus generated was fit using the four-parameter dose response equation, Y=Bottom+(Top-Bottom)/(1+10^((LogIC50−X)*HillSlope)) in order to determine the IC50 value for each compound. The radioligand concentration chosen for each assay corresponds to the Kd concentration determined through saturation binding analysis for each assay.

[2] = target: hSERT (Homo sapiens (Human), UniProt P31645); experiment: SERT radioligand binding assay ([125I]RTI-55, HEK-293 membranes); conditions: for inhibition at 0.1 µM: 100 nM, SERT IC50 with footnote *
Method: as §1, with “The” for “Recombinant HEK-293 cells expressing either the hSERT, hDAT, or hNET proteins were harvested from T-175 flasks as follows. The”
as §2, with “0.4” for “1.0”, “100% inhibition is defined with 1.0 μl/well of 10 mM desipramine dissolved in DMSO. 50 μl/well of a 2× membrane preparation (0.4 mg/ml in 50 mM Tris-Cl, pH 7.5, 120 mM NaCl, 5 mM KCl) and 50 μl/well of a 2× radioligand solution (4 nM [^3H]nisoxetine in 50 mM Tris-Cl, pH 7.5, 120 mM NaCl, 5 mM KCl) were added to the well and the reaction incubated for 1 hour at room temperature.” left out
as §3, with “Each” for “The raw data was normalized to percent inhibition using control wells defining 0% (DMSO only) and 100% (selective inhibitor) inhibition which were run on each plate. Each”

[3] = target: hDAT (Homo sapiens (Human), UniProt Q01959); experiment: DAT radioligand binding assay ([125I]RTI-55, HEK-293 membranes); conditions: for inhibition at 0.1 µM: 100 nM, DAT IC50 with footnote *
Method: as §1
Compounds were dissolved in 100% DMSO at a concentration 100 times the desired highest assay concentration, serially diluted 1:3 in 100% DMSO, and 0.4 μl/well of each solution was dispensed to a Nunc polypropylene, round bottom, 384-well plate. 100% inhibition is defined with 0.4 μl/well of 1 mM GBR-12935 dissolved in DMSO. 20 ul/well of a 2× membrane preparation (12.5 μg/ml in 30 mM sodium phosphate buffer, pH 7.9 at 4° C.) and 20 μl/well of a 2× radioligand solution ([…] [^125I]RTI-55 in 30 mM sodium phosphate buffer, pH 7.9 at 4° C.) were added to the well and the reaction incubated for 1 hour at room temperature. The contents of the assay plate were then transferred to a Millipore MultiscreenHTS GF/B filter plate which was pretreated with 0.5% PEI for at least one hour. The plate was vacuum-filtered and washed with 7 washes of 100 μl/well 50 mM Tris-Cl, pH 7.5, 120 mM NaCl, 5 mM KCl chilled to 4° C. The filtration and washing were completed in less than 90 seconds. The plates were air-dried overnight, 12 μl/well of MicroScint scintillation fluid added, and the plates counted in a Trilux.
as §3

[4] = (+)-enantiomers, read-out: SERT IC50
[5] = (+)-enantiomers, read-out: DAT IC50

Chain of hSERT (P31645 whole entry): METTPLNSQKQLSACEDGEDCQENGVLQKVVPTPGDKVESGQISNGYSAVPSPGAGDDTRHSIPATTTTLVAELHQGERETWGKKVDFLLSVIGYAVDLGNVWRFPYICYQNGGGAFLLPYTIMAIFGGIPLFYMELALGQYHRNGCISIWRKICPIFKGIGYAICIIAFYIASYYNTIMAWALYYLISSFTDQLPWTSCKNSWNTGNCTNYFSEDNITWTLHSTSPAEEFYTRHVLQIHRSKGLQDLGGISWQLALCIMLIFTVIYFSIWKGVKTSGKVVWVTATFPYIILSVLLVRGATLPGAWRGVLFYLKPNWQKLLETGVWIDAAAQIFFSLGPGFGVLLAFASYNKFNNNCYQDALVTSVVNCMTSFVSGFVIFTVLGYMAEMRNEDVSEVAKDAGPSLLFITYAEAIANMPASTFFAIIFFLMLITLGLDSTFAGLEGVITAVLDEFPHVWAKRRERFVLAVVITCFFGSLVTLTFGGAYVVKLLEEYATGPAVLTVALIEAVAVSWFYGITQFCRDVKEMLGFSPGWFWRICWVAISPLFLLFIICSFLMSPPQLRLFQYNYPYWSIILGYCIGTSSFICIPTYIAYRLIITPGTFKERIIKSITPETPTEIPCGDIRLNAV
Chain of hDAT (Q01959 whole entry): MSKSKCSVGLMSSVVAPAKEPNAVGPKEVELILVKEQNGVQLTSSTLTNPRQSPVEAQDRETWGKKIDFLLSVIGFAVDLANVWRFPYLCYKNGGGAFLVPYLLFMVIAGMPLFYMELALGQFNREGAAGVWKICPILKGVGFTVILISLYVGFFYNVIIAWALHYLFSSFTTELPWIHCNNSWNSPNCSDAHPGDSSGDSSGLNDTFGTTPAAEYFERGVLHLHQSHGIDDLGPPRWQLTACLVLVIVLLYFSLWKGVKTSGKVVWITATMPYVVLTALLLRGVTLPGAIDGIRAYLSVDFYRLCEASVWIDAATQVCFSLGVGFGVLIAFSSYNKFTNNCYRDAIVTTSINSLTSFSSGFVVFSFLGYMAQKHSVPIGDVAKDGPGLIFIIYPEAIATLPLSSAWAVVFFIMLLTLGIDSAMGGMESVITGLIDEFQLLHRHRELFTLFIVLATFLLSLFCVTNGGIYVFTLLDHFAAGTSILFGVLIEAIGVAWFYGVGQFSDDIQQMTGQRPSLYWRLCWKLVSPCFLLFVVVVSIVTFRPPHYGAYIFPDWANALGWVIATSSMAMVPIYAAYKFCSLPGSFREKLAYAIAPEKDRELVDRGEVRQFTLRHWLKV
Chain of hNET (P23975 whole entry): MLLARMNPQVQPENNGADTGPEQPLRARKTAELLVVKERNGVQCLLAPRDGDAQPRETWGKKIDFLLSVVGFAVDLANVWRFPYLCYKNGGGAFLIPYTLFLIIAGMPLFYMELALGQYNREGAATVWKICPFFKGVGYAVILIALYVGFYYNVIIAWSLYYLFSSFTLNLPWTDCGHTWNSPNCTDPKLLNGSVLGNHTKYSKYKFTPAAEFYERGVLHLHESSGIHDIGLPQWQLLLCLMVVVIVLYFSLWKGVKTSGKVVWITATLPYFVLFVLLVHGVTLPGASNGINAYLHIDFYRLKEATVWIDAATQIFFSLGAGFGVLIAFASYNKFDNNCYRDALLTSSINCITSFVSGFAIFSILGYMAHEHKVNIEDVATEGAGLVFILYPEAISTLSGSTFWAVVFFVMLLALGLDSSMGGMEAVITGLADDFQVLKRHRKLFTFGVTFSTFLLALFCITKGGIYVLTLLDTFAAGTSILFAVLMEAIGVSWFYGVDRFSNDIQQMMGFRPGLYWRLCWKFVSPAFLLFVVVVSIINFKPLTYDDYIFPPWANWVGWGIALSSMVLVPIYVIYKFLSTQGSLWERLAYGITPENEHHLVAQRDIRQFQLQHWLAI

Structure (SMILES): CC1(C)NCC(c2ccc(Cl)c(Cl)c2)c2ccc(-c3ccc(C(F)(F)F)nn3)cc21 (single isomer, unassigned) [Example 10, 4-(3,4-dichlorophenyl)-7-(6-(trifluoromethyl)pyridazin-3-yl)-1,1-dimethyl-1,2,3,4-tetrahydroisoquinoline]
- pIC50 [1]: 6.26

Structure (SMILES): CC1(C)NCC(c2ccc(Cl)cc2)c2ccc(-c3ccc(C(F)(F)F)nn3)cc21 (single isomer, unassigned) [Example 35, 4-(4-chlorophenyl)-1,1-dimethyl-7-(6-(trifluoromethyl)pyridazin-3-yl)-1,2,3,4-tetrahydroisoquinoline]
- pIC50 [2]: 7.21
- pIC50 [3]: 7.10
- pIC50 [1]: 5.99

Structure (SMILES): CNc1ccc(-c2ccc3c(c2)CNCC3c2ccc(F)cc2)nn1 (single isomer, unassigned; (+)) [Example 3, (+)-6-(4-(4-fluorophenyl)-1,2,3,4-tetrahydroisoquinolin-7-yl)-N-methylpyridazin-3-amine]
- pIC50 [2, 4]: 7.27
- pIC50 [3, 5]: 7.04
- pIC50 [1]: 6.82

Structure (SMILES): FC(F)(F)c1ccc(-c2ccc3c(c2)NCCC3c2ccc(Cl)cc2)nn1 (single isomer, unassigned; (+)) [Example 4, (+)-4-(4-chlorophenyl)-7-(6-(trifluoromethyl)pyridazin-3-yl)-1,2,3,4-tetrahydroquinoline]
- pIC50 [2, 4]: 7.67
- pIC50 [3, 5]: 6.86
- pIC50 [1]: 7.33

Structure (SMILES): Nc1ccc(-c2ccc3c(c2)CNCC3c2ccc(Cl)cc2)nn1 (single isomer, unassigned; (+)) [Example 5, (+)-6-(4-(4-chlorophenyl)-1,2,3,4-tetrahydroisoquinolin-7-yl)pyridazin-3-amine]
- pIC50 [2, 4]: 7.80
- pIC50 [3, 5]: 7.51
- pIC50 [1]: 7.20

Structure (SMILES): Fc1cc2c(cc1-c1ccc(C(F)(F)F)nn1)CNCC2c1ccc(Cl)c(Cl)c1 (single isomer, unassigned; (+)) [Example 29, (+)-4-(3,4-dichlorophenyl)-6-fluoro-7-(6-(trifluoromethyl)pyridazin-3-yl)-1,2,3,4-tetrahydroisoquinoline]
- pIC50 [2, 4]: 7.53
- pIC50 [3, 5]: 7.11
- pIC50 [1]: 7.47

Structure (SMILES): Fc1cc2c(cc1-c1ccc(OC(F)F)nn1)CNCC2c1ccc(Cl)c(Cl)c1 (single isomer, unassigned; (+)) [Example 31, (+)-4-(3,4-dichlorophenyl)-7-(6-(difluoromethoxy)pyridazin-3-yl)-6-fluoro-1,2,3,4-tetrahydroisoquinoline]
- pIC50 [2, 4]: 7.80
- pIC50 [3, 5]: 7.48
- pIC50 [1]: 8.01

Structure (SMILES): Fc1cc2c(cc1-c1ccc3ncnn3c1)CNCC2c1ccc(Cl)c(Cl)c1 (single isomer, unassigned; (+)) [Example 39, (+)-7-([1,2,4]triazolo[1,5-a]pyridin-6-yl)-4-(3,4-dichlorophenyl)-6-fluoro-1,2,3,4-tetrahydroisoquinoline]
- pIC50 [2, 4]: 7.85
- pIC50 [3, 5]: 7.08
- pIC50 [1]: 7.15

Structure (SMILES): Cc1ccc(C2CCNc3cc(-c4ccc(C)nn4)ccc32)cc1 (stereo not shown) [Example 1, 7-(6-methylpridazin-3-yl)-4-p-tolyl-1,2,3,4-tetrahydroquinoline]
- pIC50 [2, 4]: 7.55
- pIC50 [3, 5]: 7.19
- pIC50 [1]: 6.76

Structure (SMILES): Nc1ccc(-c2ccc3c(c2)CNCC3c2ccc(F)cc2)nn1 (stereo not shown) [Example 2, 6-(4-(4-fluorophenyl)-1,2,3,4-tetrahydroisoquinolin-7-yl)pyridazin-3-amine]
- pIC50 [2, 4]: 6.84
- pIC50 [3, 5]: 7.05
- pIC50 [1]: 6.44

- inhibition at 0.1 µM [2]: 35%
- inhibition at 0.1 µM [3]: 9%
- inhibition at 0.1 µM [1]: 0%
Structure (SMILES): CC1NCC(c2ccc(Cl)cc2)c2ccc(-c3ccc(Cl)nn3)cc21 (stereo not shown) [Example 6, 4-(4-Chloro-phenyl)-7-(6-chloro-pyridazin-3-yl)-1-methyl-1,2,3,4-tetrahydro-isoquinoline]

- inhibition at 0.1 µM [2]: 35%
- inhibition at 0.1 µM [3]: 16%
- inhibition at 0.1 µM [1]: 0%
Structure (SMILES): CC1NCC(c2ccc(Cl)cc2)c2ccc(-c3cccnn3)cc21 (stereo not shown) [Example 7, 4-(4-Chloro-phenyl)-7-(pyridazin-3-yl)-1-methyl-1,2,3,4-tetrahydro-isoquinoline]

Source: patent publication US9034899B2, “Aryl, heteroaryl, and heterocycle substituted tetrahydroisoquinolines and use thereof” (Albany Molecular Research, Inc., priority 2009, dated 2015)
